From patent US8822468B2 (Novartis AG, priority 2008, dated 2014)

Target: T1, cMET receptor tyrosine kinase (GST-cMET (969-1390)) (Homo sapiens, UniProt P08581)
T1 construct: made in house
Test: EPK cMET profiling assay (LanthaScreen TR-FRET antibody based kinase phosphorylation assay)
Format: biochemical
Conditions: purified recombinant GST-cMET (969-1390), 2 μM ATP, 50 nM Fluorescein-PolyEAY, 60 minutes at room temperature; read-out: c-Met IC50
Description: A number of compounds of the present invention were assayed in an antibody based kinase phosphorylation assay as follows.
EPK cMET Profiling Assay:
The EPK kinase assay for cMET receptor tyrosine kinase was developed, using the purified recombinant GST-fusion protein, containing the cytoplasmic domain of the enzyme. GST-cMET (969-1390) was purified by affinity chromatography.
The kinase assay is based on the LanthaScreen™ technology. LanthaScreen™ is the detection of Time-Resolved Fluorescence Resonance Energy Transfer (TR-FRET) using lanthanide chelates to measure interactions between various binding partners. In a TR-FRET kinase assay, a long-lifetime lanthanide donor species is conjugated to an antibody that specifically binds to a phosphorylated product of a kinase reaction that is labeled with a suitable acceptor fluorophore. This antibody-mediated interaction brings the lanthanide donor and the acceptor into proximity such that resonance energy transfer can take place, resulting in a detectible increase in the FRET signal.
The kinase reactions were performed in 384 well microtiter plates in a total reaction volume of 9.05 μL. The assay plates were prepared with 0.05 μL per well of test compound in the appropriate test concentration, as described under “preparation of compound dilutions”. The reactions were started by combining 4.5 μL of ATP solution with 4.5 μL of enzyme-substrate mix (consisting of kinase and substrate). The final concentrations in the kinase reactions were 35 mM Tris/HCl, 1 mM DTT, 0.025% Tween20, 10 μM sodium orthovanadate, 0.25% BSA, 0.6% DMSO, 10 mM MgCl2, 3 mM MnCl2, 2 μM ATP, 50 nM Fluorescein-PolyEAY, and 0.3 nM enzyme.
The reactions were incubated for 60 minutes at room temperature and stopped by adding 4.5 μL of stop buffer (50 mM EDTA, 0.04% NP40, 20 mM Tris/HCl).
Subsequently 4.5 μL of detection mix (50 mM Tris/HCl, 2 mM DTT, 0.05% Tween20, 20 μM sodium orthovanadate, 1% BSA, 1.72 μg/ml Tb-PY20 antibody) were added to the stopped reactions. After 30 minutes incubation at room temperature, the plates were measured in a BMG Pherastar fluorescence reader. The effect of compound on the enzymatic activity was in all assays obtained from the linear progress curves and determined from one reading (end point measurement).
Test compounds were dissolved in DMSO (10 mM) and transferred into 1.4 mL flat bottom or V-shaped Matrix tubes carrying a unique 2D matrix. The stock solutions were stored at −20° C. if not used immediately. For the test procedure the vials were defrosted and identified by a scanner whereby a working sheet was generated that guided the subsequent working steps.
Compound dilutions were made in 96 well plates. This format enabled the assay of maximally 40 individual test compounds at 8 concentrations (single points) including 4 reference compounds. The dilution protocol included the production of “pre-dilution plates”, “master plates” and “assay plates”.
Pre-dilution plates: 96 polypropylene well plates were used as pre-dilution plates. A total of 4 pre-dilution plates were prepared including 10 test compounds each on the plate positions A1-A10, one standard compound at A11 and one DMSO control at A12. All dilution steps were done on a HamiltonSTAR robot.
Master plates: 100 μL of individual compound dilutions including standard compound and controls of the 4 “pre-dilution plates” were transferred into a 384 “master plate” including the following concentrations 1,820, […], 182, 54.6, 18.2, 5.46, 1.82 and 0.546 μM, respectively in 90% of DMSO.
Assay plates: Identical “assay plates” were then prepared by pipetting 50 nL each of compound dilutions of the “master plates” into 384-well “assay plates” by means of a HummingBird 384-channel dispenser. These plates were used directly for the assay which was performed in a total volume of 9.05 μL. This led to a final compound concentration of 10, 3.0, 1.0, 0.3, 0.1, 0.03, 0.01 and 0.003 μM and a final DMSO concentration of 0.5% in the assay.

T1 sequence (P08581 969-1390): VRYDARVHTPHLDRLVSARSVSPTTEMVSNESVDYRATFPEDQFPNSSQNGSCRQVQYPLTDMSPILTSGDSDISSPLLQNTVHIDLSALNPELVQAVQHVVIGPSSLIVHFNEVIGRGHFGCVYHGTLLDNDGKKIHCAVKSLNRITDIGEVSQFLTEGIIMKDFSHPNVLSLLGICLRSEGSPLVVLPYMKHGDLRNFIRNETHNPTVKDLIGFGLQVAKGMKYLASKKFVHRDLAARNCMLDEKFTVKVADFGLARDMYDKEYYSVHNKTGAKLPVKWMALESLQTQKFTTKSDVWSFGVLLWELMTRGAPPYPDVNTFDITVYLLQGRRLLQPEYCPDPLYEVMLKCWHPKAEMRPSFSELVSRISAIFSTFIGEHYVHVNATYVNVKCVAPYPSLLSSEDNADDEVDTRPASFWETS

| Compound | IC50 |
| --- | --- |
| CN(C)c1cccc(-c2ccc3ncc(Cc4ccc5ncccc5c4)n3n2)c1 [Example 36, Dimethyl-[3-(3-quinolin-6-ylmethyl-imidazo[1,2-b]pyridazin-6-yl)-phenyl]-amine] | 65 nM |
| c1ccc2cc(-c3ccc4ncc(Cc5ccc6ncccc6c5)n4n3)ccc2c1 [Example 17, 6-(6-Naphthalen-2-yl-imidazo[1,2-b]pyridazin-3-ylmethyl)-quinoline] | 210 nM |
| Cn1cc(-c2ccc3ncc(Cc4ccc5ncsc5c4)n3n2)cn1 [Example 12, 3-Benzothiazol-6-ylmethyl-6-(1-methyl-1H-pyrazol-4-yl)-imidazo[1,2-b]pyridazine] | 32.5 nM |
| c1cnc2ccc(Cc3cnc4ccc(-c5cnn(C6CCNCC6)c5)nn34)cc2c1 [Example 7, 6-[6-(1-piperidin-4-yl-1H-pyrazol-4-yl)-imidazo[1,2-b]pyridazin-3-ylmethyl]-quinoline] | 50 nM |
| F[C@@H]1CCN(c2ccc3ncc(Cc4ccc5ncccc5c4)n3n2)C1 [Example 124, 6-[6-((R)-3-fluoro-pyrrolidin-1-yl)-imidazo[1,2-b]pyridazin-3-ylmethyl]-quinoline] | 180 nM |
| C=Cc1cnc2ccc(Cc3cnc4ccc(-c5cnn(C)c5)nn34)cn12 [Example 299, 6-(1-Methyl-1H-pyrazol-4-yl)-3-(3-vinyl-imidazo[1,2-a]pyridin-6-ylmethyl)-imidazo[1,2-b]pyridazine] | 270 nM |
| CNC(=O)c1cccc(-c2ccc3ncc(Cc4ccc5ncccc5c4)n3n2)c1 [Example 58, N-Methyl-3-(3-quinolin-6-ylmethyl-imidazo[1,2-b]pyridazin-6-yl)-benzamide] | 250 nM |
| CC(c1cc2cccnc2cc1F)c1cnc2ccc(-c3cnn(C4CCNCC4)c3)nn12 (racemic) [Example 258, (rac)-7-Fluoro-6-{1-[6-(1-piperidin-4-yl-1H-pyrazol-4-yl)-imidazo[1,2-b]pyridazin-3-yl]-ethyl}-quinoline] | 43 nM |
| COc1ccc(Cc2cnc3ccc(-c4cnn(C)c4)nn23)cc1 [Example 4, 3-(4-methoxy-benzyl)-6-(1-methyl-1H-pyrazol-4-yl)-imidazo[1,2-b]pyridazine] | 280 nM |
| C[C@@H](c1cc2cnn(C)c2cc1F)c1cnc2ccc(-c3cnn(C)c3)nn12 [Example 194, 3-[(S)-1-(6-Fluoro-1-methyl-1H-indazol-5-yl)-ethyl]-6-(1-methyl-1H-pyrazol-4-yl)-imidazo[1,2-b]pyridazine] | 18 nM |
| c1cnc2ccc(Cc3cnc4ccc(-c5cncnc5)nn34)cc2c1 [Example 54, 6-(6-Pyrimidin-5-yl-imidazo[1,2-b]pyridazin-3-ylmethyl)-quinoline] | 120 nM |
| O=S1(=O)CCC(Nc2ccc3ncc(Cc4ccc5ncccc5c4)n3n2)C1 (stereo not drawn) [Example 99, 1,1-Dioxo-tetrahydro-1lambda*6*-thiophen-3-yl)-(3-quinolin-6-ylmethyl-imidazo[1,2-b]pyridazin-6-yl)-amine] | 120 nM |
| CCCn1cc(-c2ccc3ncc(Cc4ccc5ncccc5c4)n3n2)cn1 [Example 46, 6-[6-(1-Propyl-1H-pyrazol-4-yl)-imidazo[1,2-b]pyridazin-3-ylmethyl]-quinoline] | 57 nM |
| c1cnc2ccc(Cc3cnc4ccc(N5CCOCC5)nn34)cc2c1 [Example 84, 6-(6-Morpholin-4-yl-imidazo[1,2-b]pyridazin-3-ylmethyl)-quinoline] | 49 nM |
| c1cnc2ccc(Cc3cnc4ccc(-c5cnc6ccccc6c5)nn34)cc2c1 [Example 39, 6-(6-Quinolin-3-yl-imidazo[1,2-b]pyridazin-3-ylmethyl)-quinoline] | 72 nM |
| Clc1cc(-c2cc(-c3ccc4ncc(Cc5ccc6ncccc6c5)n4n3)ccn2)ccn1 [Example 50, 2′-Chloro-4-(3-quinolin-6-ylmethyl-imidazo[1,2-b]pyridazin-6-yl)-[2,4′]bipyridinyl] | 950 nM |
| CC(c1ccc2nccn2c1)c1cnc2ccc(-c3cnn(C)c3)nn12 (racemic) [Example 293, (rac)-3-(1-Imidazo[1,2-a]pyridin-6-yl-ethyl)-6-(1-methyl-1H-pyrazol-4-yl)-imidazo[1,2-b]pyridazine] | 23 nM |
| c1cnc2ccc(Cc3cnc4ccc(-c5cc6ccccc6s5)nn34)cc2c1 [Example 38, 6-(6-Benzo[b]thiophen-2-yl-imidazo[1,2-b]pyridazin-3-ylmethyl)-quinoline] | 39 nM |
| CC(c1ccc(O)cc1)c1cnc2ccc(-c3cnn(CCO)c3)nn12 (racemic) [Example 221, (rac)-4-(1-{6-[1-(2-Hydroxy-ethyl)-1H-pyrazol-4-yl]-imidazo[1,2-b]pyridazin-3-yl}-ethyl)-phenol] | 240 nM |
| N#Cc1cc(-c2ccc3ncc(Cc4ccc5ncccc5c4)n3n2)ccc1F [Example 67, 2-Fluoro-5-(3-quinolin-6-ylmethyl-imidazo[1,2-b]pyridazin-6-yl)-benzonitrile] | 160 nM |
| CC(c1ccc2ncn(CCN3CCCC3)c2c1)c1cnc2ccc(-c3cnn(C)c3)nn12 (racemic) [Example 207, (rac)-6-(1-Methyl-1H-pyrazol-4-yl)-3-{1-[3-(2-pyrrolidin-1-yl-ethyl)-3H-benzoimidazol-5-yl]-ethyl}-imidazo[1,2-b]pyridazine] | 310 nM |
| CC(c1ccc2ncccc2c1Cl)c1cnc2ccc(-c3cnn(CCO)c3)nn12 (racemic) [Example 188, (rac)-2-(4-{3-[1-(5-Chloro-quinolin-6-yl)-ethyl]-imidazo[1,2-b]pyridazin-6-yl}-pyrazol-1-yl)ethanol] | 5.6 nM |
| c1cnc2ccc(Cc3cnc4ccc(Nc5ccc(CN6CCCCC6)cc5)nn34)cc2c1 [Example 126, (4-Piperidin-1-ylmethyl-phenyl)-(3-quinolin-6-ylmethyl-imidazo[1,2-b]pyridazin-6-yl)-amine] | 16 nM |
| Cc1cn(-c2ccc3ncc(Cc4ccc5ncccc5c4)n3n2)cn1 [Example 118, 6-[6-(4-Methyl-imidazol-1-yl)-imidazo[1,2-b]pyridazin-3-ylmethyl]-quinoline] | 220 nM |
| Cn1cc(-c2ccc3ncc(Cc4ccc5[nH]ncc5c4)n3n2)cn1 [Example 150, 3-(1H-Indazol-5-ylmethyl)-6-(1-methyl-1H-pyrazol-4-yl)-imidazo[1,2-b]pyridazine] | 56 nM |
| Fc1cc2ncccc2cc1Cc1cnc2ccc(-c3cnn(CCN4CCCC4)c3)nn12 [Example 231, 7-Fluoro-6-{6-[1-(2-pyrrolidin-1-yl-ethyl)-1H-pyrazol-4-yl]-imidazo[1,2-b]pyridazin-3-ylmethyl}-quinoline] | 26 nM |
| Cn1cc(-c2ccc3ncc(Cc4cc5cccnc5cc4C(F)(F)F)n3n2)cn1 [Example 169, 6-[6-(1-Methyl-1H-pyrazol-4-yl)-imidazo[1,2-b]pyridazin-3-ylmethyl]-7-trifluoromethyl-quinoline] | 400 nM |
| CC(=O)Nc1cccc(-c2ccc3ncc(Cc4ccc5ncccc5c4)n3n2)c1 [Example 28, N-[3-(3-Quinolin-6-ylmethyl-imidazo[1,2-b]pyridazin-6-yl)-phenyl]-acetamide] | 240 nM |
| Cn1cc(-c2ccc3ncc(Cc4cc5cnn(C)c5cc4F)n3n2)cn1 [Example 277, 3-(6-Fluoro-1-methyl-1H-indazol-5-ylmethyl)-6-(1-methyl-1H-pyrazol-4-yl)-imidazo[1,2-b]pyridazine] | 61 nM |
| OC(c1cc2cccnc2cc1F)c1cnc2ccc(-c3cn[nH]c3)nn12 (racemic) [Example 252, (rac)-(7-Fluoro-quinolin-6-yl)-[6-(1H-pyrazol-4-yl)-imidazo[1,2-b]pyridazin-3-yl]-methanol] | 280 nM |
